Source: patent US20190191690A1, “AGENTS AND DEVICE FOR COMBATING PESTS, IN […] AND MICE, AND METHOD FOR USING THE AGENTS” (priority 2016, published 2019)

Experiments:
mice [1] = experiment: experiments on development of resistance in mice; assay type: in vivo
mice [2] = experiment: lethal dose in mice; assay type: in vivo
Protocol: The grayanotoxins have been described in exhaustive terms in literature and the chemical formulae are known. It has become evident that the effects of the substance occur even for low concentrations of the active agent. The lethal dose for grayanotoxin 1 in mice is approx. 5.1 mg per kg live weight and for grayanotoxin 3 approx. 4.9 mg per kg live weight. The substance as an active agent carrier may contain natural and/or synthetic carrier substances or substance mixtures. Natural carrier substances may be preferably selected from the group of natural oils, waxes and honey and their mixtures, emulsions, solutions or dispersions.

| Compound | development of resistance (mice [1]) | lethal dose (mice [2]) |
| --- | --- | --- |
| grayanotoxin | rare for mice to develop a resistance | – |
| grayanotoxin 3 | – | approx. 4.9 mg per kg live weight |
| CC(=O)O[C@@H]1[C@H]2CC[C@H]3[C@@](C)(O)[C@@H]4C[C@H](O)C(C)(C)[C@@]4(O)[C@H](O)C[C@@]13C[C@@]2(C)O [grayanotoxin 1] | – | approx. 5.1 mg per kg live weight |
